Experiments:
bamyardgrass = experiment: Test B flood test barnyardgrass; assay type: in vivo, Echinochloa crus-galli
In short: (§1)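 Read-out is a visual response score from 0 (no effect) to 10 (complete control), assigned by comparison with untreated controls. Treatment was applied at the 2-leaf stage, and plants stayed in the greenhouse for twelve to sixteen days before scoring.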

duck salad = experiment: Test B flood test duck salad; assay type: in vivo, Heteranthera limosa
In short: as §1

morningglory = experiment: Test B pre/postemergence morningglory; assay type: in vivo, Ipomoea hederacea
In short: (§2)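 Herbicidal effect was estimated by eye on a ten-point control scale after plants spent twelve to sixteen days in a greenhouse following soil or foliar treatment. Foliar sprays targeted plants at one to four leaves; all doses were formulated in a non-phytotoxic solvent with surfactant.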

rape = experiment: Test B pre/postemergence rape; assay type: in vivo, Brassica napus
In short: as §2

surinam grass = experiment: Test B pre/postemergence surinam grass; assay type: in vivo, Brachiaria decumbens
In short: as §2

crabgrass = experiment: Test B pre/postemergence crabgrass; assay type: in vivo, Digitaria sanguinalis
In short: as §2

smallflower flatsedge = experiment: Test B flood test smallflower flatsedge; assay type: in vivo, Cyperus difformis
In short: as §1

rice = experiment: Test B flood test rice; assay type: in vivo, Oryza sativa
In short: as §1

wild oat = experiment: Test B pre/postemergence wild oat; assay type: in vivo, Avena fatua
In short: as §2

soybean = experiment: Test B pre/postemergence soybean; assay type: in vivo, Glycine max
In short: as §2

pigweed = experiment: Test B pre/postemergence pigweed; assay type: in vivo, Amaranthus retroflexus
In short: as §2

corn = experiment: Test B pre/postemergence corn; assay type: in vivo, Zea mays
In short: as §2

cocklebur = experiment: Test B pre/postemergence cocklebur; assay type: in vivo, Xanthium strumarium
In short: as §2

bedstraw = experiment: Test B pre/postemergence bedstraw; assay type: in vivo, Galium aparine
In short: as §2

velvetleaf = experiment: Test B pre/postemergence velvetleaf; assay type: in vivo, Abutilon theophrasti
In short: as §2

sugar beet = experiment: Test B pre/postemergence sugar beet; assay type: in vivo, Beta vulgaris
In short: as §2

[1] = Rate 62 g/ha, headed Pre-emergence (flood test species), scale 0 to 10 (0 no effect, 10 complete control)
[2] = Rate 125 g/ha, Pre-emergence, flood test species, scale 0 to 10 where 0 is no effect and 10 is complete control
[3] = Rate 250 g/ha, Pre-emergence, flood-test species, scale 0 to 10, 0 is no effect, 10 is complete control
[4] = Rate 500 g/ha, Pre-emergence, flood test species, scale 0 to 10 (0 no effect, 10 complete control)
[5] = Preemergence, Rate 62 g/ha, scale of 0 to 10 where 0 is no effect and 10 is complete control
[6] = Preemergence, Rate 250 g/ha, scale of 0 to 10 where 0 is no effect and 10 is complete control
[7] = Preemergence, Rate 500 g/ha, scale of 0 to 10 where 0 is no effect and 10 is complete control
[8] = Rate 125 g/ha, Preemergence, scale of 0 to 10 where 0 is no effect and 10 is complete control
[9] = Rate 500 g/ha, Postemergence, scale 0 to 10, 0 no effect, 10 complete control
[10] = Rate 62 g/ha, Postemergence, scale of 0 to 10 where 0 is no effect and 10 is complete control
[11] = Rate 125 g/ha, Postemergence, scale 0 to 10

Structure (SMILES): CC(C)N(C(=O)n1oc(=O)n(CC(C)(C)C)c1=O)c1ccc(F)cc1 [Compound 246]
- Barnyardgrass plant response rating (bamyardgrass; [1]): 0
- Barnyardgrass plant response rating (bamyardgrass; [2]): 0
- Barnyardgrass plant response rating (bamyardgrass; [3]): 0
- Barnyardgrass plant response rating (bamyardgrass; [4]): 8
- Ducksalad plant response rating (duck salad; [1]): 0
- Ducksalad plant response rating (duck salad; [2]): 0
- Ducksalad plant response rating (duck salad; [3]): 0
- Ducksalad plant response rating (duck salad; [4]): 0
- Morningglory plant response rating (morningglory; [5]): 0
- Morningglory plant response rating (morningglory; [6]): 0
- Plant response rating, Morningglory (morningglory; [7]): 0
- Morningglory plant response rating (morningglory; [8]): 0
- Plant response rating (0 to 10; 0 is no effect, 10 is complete control), Morningglory (morningglory; Rate 250 g/ha, Postemergence): 9
- Morningglory plant response rating (morningglory; [9]): 9
- Rape plant response rating (rape; [5]): 0
- Rape plant response rating (rape; [6]): 10
- Plant response rating, Rape (rape; [7]): 10
- Rape plant response rating (rape; [8]): 2
- Plant response rating (0 to 10; 0 is no effect, 10 is complete control), Rape (rape; Rate 250 g/ha, Postemergence): 0
- Rape plant response rating (rape; [9]): 0
- B. signalgrass plant response rating (surinam grass; [5]): 0
- B. signalgrass plant response rating (surinam grass; [6]): 3
- Plant response rating, B. signalgrass (surinam grass; [7]): 5
- B. signalgrass plant response rating (surinam grass; [10]): 0
- B. signalgrass plant response rating (surinam grass; Rate 125 g/ha, Postemergence, scale 0 (no effect) to 10 (complete control)): 0
- B. signalgrass plant response rating (surinam grass; [8]): 2
- Plant response rating (0 to 10; 0 is no effect, 10 is complete control), B. signalgrass (surinam grass; Rate 250 g/ha, Postemergence): 0
- B. signalgrass plant response rating (surinam grass; [9]): 1
- Crabgrass plant response rating (crabgrass; [5]): 3
- Crabgrass plant response rating (crabgrass; [6]): 10
- Plant response rating, Crabgrass (crabgrass; [7]): 10
- Crabgrass plant response rating (crabgrass; [8]): 3
- Plant response rating (0 to 10; 0 is no effect, 10 is complete control), Crabgrass (crabgrass; Rate 250 g/ha, Postemergence): 0
- Crabgrass plant response rating (crabgrass; [9]): 3
- S. Flatsedge plant response rating (smallflower flatsedge; [1]): 0
- S. Flatsedge plant response rating (smallflower flatsedge; [2]): 0
- S. Flatsedge plant response rating (smallflower flatsedge; [3]): 0
- S. Flatsedge plant response rating (smallflower flatsedge; [4]): 0
- Rice plant response rating (rice; [1]): 0
- Rice plant response rating (rice; [2]): 0
- Rice plant response rating (rice; [3]): 0
- Rice plant response rating (rice; [4]): 0
- Wild oats plant response rating (wild oat; [5]): 2
- Wild oats plant response rating (wild oat; [6]): 6
- Plant response rating, Wild oats (wild oat; [7]): 8
- Wild oats plant response rating (wild oat; [8]): 3
- Wild oats plant response rating (wild oat; [9]): 0
- Soybean plant response rating (soybean; [5]): 0
- Soybean plant response rating (soybean; [6]): 0
- Plant response rating, Soybean (soybean; [7]): 2
- Soybean plant response rating (soybean; [8]): 0
- Soybean plant response rating (soybean; [9]): 4
- Redroot pigweed plant response rating (pigweed; [5]): 0
- Redroot pigweed plant response rating (pigweed; [6]): 0
- Plant response rating, Redroot pigweed (pigweed; [7]): 3
- Redroot pigweed plant response rating (pigweed; [8]): 0
- Plant response rating (0 to 10; 0 is no effect, 10 is complete control), Redroot pigweed (pigweed; Rate 250 g/ha, Postemergence): 2
- Redroot pigweed plant response rating (pigweed; [9]): 3
- Corn plant response rating (corn; [5]): 0
- Corn plant response rating (corn; [6]): 0
- Plant response rating, Corn (corn; [7]): 3
- Corn plant response rating (corn; [10]): 0
- Corn plant response rating (corn; [11]): 0
- Corn plant response rating (corn; [8]): 0
- Plant response rating (0 to 10; 0 is no effect, 10 is complete control), Corn (corn; Rate 250 g/ha, Postemergence): 0
- Corn plant response rating (corn; [9]): 0
- Cocklebur plant response rating (cocklebur; [5]): 0
- Cocklebur plant response rating (cocklebur; [6]): 0
- Plant response rating, Cocklebur (cocklebur; [7]): 0
- Cocklebur plant response rating (cocklebur; [10]): 0
- Cocklebur plant response rating (cocklebur; [11]): 0
- Cocklebur plant response rating (cocklebur; [8]): 0
- Plant response rating (0 to 10; 0 is no effect, 10 is complete control), Cocklebur (cocklebur; Rate 250 g/ha, Postemergence): 1
- Cocklebur plant response rating (cocklebur; [9]): 2
- Bedstraw plant response rating (bedstraw; [5]): 0
- Bedstraw plant response rating (bedstraw; [6]): 0
- Plant response rating, Bedstraw (bedstraw; [7]): 2
- Bedstraw plant response rating (bedstraw; [10]): 7
- Bedstraw plant response rating (bedstraw; [11]): 7
- Bedstraw plant response rating (bedstraw; [8]): 0
- Plant response rating (0 to 10; 0 is no effect, 10 is complete control), Bedstraw (bedstraw; Rate 250 g/ha, Postemergence): 9
- Bedstraw plant response rating (bedstraw; [9]): 9
- Velvetleaf plant response rating (velvetleaf; [5]): 0
- Velvetleaf plant response rating (velvetleaf; [6]): 4
- Plant response rating, Velvetleaf (velvetleaf; [7]): 5
- Velvetleaf plant response rating (velvetleaf; [8]): 2
- Velvetleaf plant response rating (velvetleaf; [9]): 3
- Sugarbeets plant response rating (sugar beet; [5]): 0
- Sugarbeets plant response rating (sugar beet; [6]): 2
- Plant response rating, Sugarbeets (sugar beet; [7]): 8
- Sugarbeets plant response rating (sugar beet; [8]): 1
- Sugarbeets plant response rating (sugar beet; [9]): 0

— patent US6737383B1, “Herbicidal oxadiazolidines” (priority 1999, dated 2004)
